The source made the active and inactive calls. The rule behind the calls is not given here.
The compounds below were run against Serine/threonine-protein kinase PLK1 (Homo sapiens) (UniProt P53350) (assay: PLK1 polo-box domain peptide-binding inhibitors, SAR follow-up, biochemical, fluorescence polarization, synthesized analogs, concentration response (AID 1057)). Conditions: Plk1 PBD fluorescence polarization peptide binding.
Serine/threonine-protein kinase PLK1 (Homo sapiens), sequence (P53350 whole entry, looked up, the tested form may be a part): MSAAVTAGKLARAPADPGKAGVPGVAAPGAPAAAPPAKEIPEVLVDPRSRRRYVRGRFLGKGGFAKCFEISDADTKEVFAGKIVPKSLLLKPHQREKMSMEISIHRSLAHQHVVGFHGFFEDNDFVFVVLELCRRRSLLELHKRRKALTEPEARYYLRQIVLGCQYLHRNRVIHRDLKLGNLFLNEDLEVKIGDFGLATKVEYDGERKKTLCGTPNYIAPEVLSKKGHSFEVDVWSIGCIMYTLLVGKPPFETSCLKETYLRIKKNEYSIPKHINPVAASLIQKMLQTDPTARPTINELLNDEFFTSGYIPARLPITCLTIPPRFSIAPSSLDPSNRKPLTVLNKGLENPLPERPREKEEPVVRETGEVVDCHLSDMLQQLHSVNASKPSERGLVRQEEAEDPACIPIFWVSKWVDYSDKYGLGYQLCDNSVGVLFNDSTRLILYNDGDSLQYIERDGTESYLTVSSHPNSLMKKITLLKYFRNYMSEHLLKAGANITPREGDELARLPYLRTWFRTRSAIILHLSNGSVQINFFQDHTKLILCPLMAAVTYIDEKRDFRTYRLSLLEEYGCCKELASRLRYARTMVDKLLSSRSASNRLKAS

Question: For `Cc1cccc(N/N=C/c2c(O)[nH]c(=S)[nH]c2=O)c1`, which IC50 is on record?
Answer: Its IC50 is > 50 µM (inactive).

Question: With `C/C(=N\NC(=O)c1ccncc1)c1c(O)[nH]c(=O)[nH]c1=O` as the compound, how does the IC50 read?
Answer: The IC50 was > 50 µM (inactive).

Question: Which IC50 does the source give for `CCOC(=O)CCCCCNC(=O)c1c(O)[nH]c(=O)[nH]c1=O` here?
Answer: Its IC50 is > 50 µM (inactive).

Source: PubChem BioAssay AID1057 (University of Pittsburgh Molecular Library Screening Center, 2008)
